From patent publication EP3782622A1, “ADENOSINE A2B RECEPTOR AGONIST FOR THE TREATMENT OF MUSCU[…]” (Rheinische Friedrich-Wilhelms-Universität Bonn, priority 2019, dated 2021)

Experiments:
[1] = test system: primäre humane Skelettmuskelzellen; experiment: Glucose uptake test (abcam kit ab136956); type: cell-based; conditions: primary human skeletal muscle cells, Abbildung 5
Description: Die Glukoseaufnahme wurde mit murinen und humanen SKM-Zellen unter Verwendung des Glukoseaufnahmekits von abcam (ab136956) (abcam plc., Cambridge, UK) nach Herstellerangaben gemessen.

[2] = test system: humanen Skelettmuskel-Explantaten; experiment: Endogenous respiration (Oxygraph 2K): oxygen consumption of human skeletal muscle explants; type: cell-based; conditions: treated 15 min before measurement
Protocol: (§1) Skelettmuskelzellen oder -gewebe wurden 15 Minuten vor den […] Messungen wie angegeben behandelt (Oxygraph 2K; Oroboros Instruments). Die Proben wurden in die Oxygraphenkammer mit 2 ml Inkubationsmedium (0,5 mM Ethylenglycol-bis(aminoethylether)-N,N,N',N'-tetraessigsäure (EGTA), 3 mM MgCl2 · 6 H2O, 60 mM K-Lactobionat, 20 mM Taurin, 10 mM KH2PO4, 20 mM 2-(4-(2-Hydroxyethyl)-1-piperazinyl)-ethansulfonsäure (HEPES), 110 mM Saccharose und 1 g/l Bovines Serumalbumin (BSA), pH 7,1) gebracht. In vitro-Atmungswerte wurden bei Erreichen eines stationären Zustandes aufgezeichnet, gefolgt von der Zugabe von Substraten (Zustand 1: endogen; Zustand 2: Adenosindiphosphat (ADP); Zustand 3: Succinat; Zustand 4: Oligomycin; entkoppelt: 2,4-dinitrophenol, carbonylcyanide p-trifluoromethoxyphenyl-hydrazine (FCCP)). Die Atmungsraten wurden auf den Gesamtproteingehalt normalisiert.

Satellitenzellen = experiment: Isolation and amount of satellite cells from treated old mice; type: in vivo, Mäuse; conditions: 1 mg/kg once daily for four weeks
Description: WT männliche C57BL/6 Mäuse wurden von Janvier gekauft. A2B-/- Mäuse wurden von M. Idzko, Freiburg, Deutschland, zur Verfügung gestellt. ATA2B-KO (A2Bfloxed/floxed;AdipoCre+) und Con-A2B (A2Bfloxed/floxed;AdipoCre-) Mäuse wurden durch Züchtung von A2Bfloxed/floxed Mäusen (erzeugt von Holger K. Eltzschig) mit Adiponectin-Cre (Jackson Laboratories) Mäusen zur Herstellung von A2Bfloxed;AdipoCre+ heterozygoten Mäusen erzeugt. Heterozygote Mäuse wurden mit A2Bfloxed/floxed gezüchtet. Männliche Wurfgeschwister wurden zufällig experimentellen Gruppen zugeordnet. Halbfettdiät (HFD, 60% Energie aus Fett) und Kontrolldiät wurden von ssniff Spezialdiäten GmbH (Soest, DE) gekauft. Mäuse wurden in einem täglichen Zyklus von 12 Stunden Licht (0600 bis 1800) und 12 Stunden Dunkelheit (1800 bis 0600) bei 23 ± 1°C gehalten und erhielten freien Zugang zu Futter und Wasser. Für die Muskelanalyse/Sarkopenie wurden Mäusen vier Wochen lang einmal täglich intraperitoneal mit 1 mg/kg 2-({6-Amino-3,5-dicyano-4-[4-(cyclopropylmethoxy)-phenyl]-pyridin-2-yl}sulfanyl)-acetamid (Bay 60-6583) injiziert. […]

Mäusen [3] = experiment: Muscle strength of mice after treatment; type: in vivo, Mäuse; conditions: Abbildung 8; for Muskelkraft: mice
Description: (§2) WT männliche C57BL/6 Mäuse wurden von Janvier gekauft. A2B-/- Mäuse wurden von M. Idzko, Freiburg, Deutschland, zur Verfügung gestellt. ATA2B-KO (A2Bfloxed/floxed;AdipoCre+) und Con-A2B (A2Bfloxed/floxed;AdipoCre-) Mäuse wurden durch Züchtung von A2Bfloxed/floxed Mäusen (erzeugt von Holger K. Eltzschig) mit Adiponectin-Cre (Jackson Laboratories) Mäusen zur Herstellung von A2Bfloxed;AdipoCre+ heterozygoten Mäusen erzeugt. Heterozygote Mäuse wurden mit A2Bfloxed/floxed gezüchtet. Männliche Wurfgeschwister wurden zufällig experimentellen Gruppen zugeordnet. Halbfettdiät (HFD, 60% Energie aus Fett) und Kontrolldiät wurden von ssniff Spezialdiäten GmbH (Soest, DE) gekauft. Mäuse wurden in einem täglichen Zyklus von 12 Stunden Licht (0600 bis 1800) und 12 Stunden Dunkelheit (1800 bis 0600) bei 23 ± 1°C gehalten und erhielten freien Zugang zu Futter und Wasser. Für die Muskelanalyse/Sarkopenie wurden Mäusen vier Wochen lang einmal täglich intraperitoneal mit 1 mg/kg 2-({6-Amino-3,5-dicyano-4-[4-(cyclopropylmethoxy)-phenyl]-pyridin-2-yl}sulfanyl)-acetamid (Bay 60-6583) injiziert.
Extensor digitorum longus (EDL) Muskeln aus den Hinterbeinen von Mäusen wurden von Sehne zu Sehne isoliert, in eine wässrige Pufferlösung aus Krebs-Puffer (118 mM NaCl, 3,4 mM KCl, 0,8 mM MgSO4, 1,2 mM KH2PO4, 11,1 mM Glukose, 25 mM NaHCO3, 2,5 mM CaCl2) getaucht und bei Raumtemperatur mit Carbogen (ein Gasgemisch aus 5 Volumenteilen Kohlenstoffdioxid (CO2) und 95 Volumenteilen Sauerstoff (O2)) umspült. Die Muskeln wurden zwischen der Klemme eines Hebelarms und dem Haken eines Kraftaufnehmers eines Myographen (SI Instruments) ausgerichtet. Dann wurden die Muskeln gedehnt, bis ein einzelner Impuls während einer Zuckungsstimulation die maximale Kraft hervorrief. Es wurden Zuckungsstimulationen (2 V, 1 ms) für […] aufgezeichnet und die Kraft gemessen. Die gesamte Muskelquerschnittsfläche wurde geschätzt, indem die Muskelmasse durch das Produkt aus der Muskellänge, dem Verhältnis von […] (0,44 bei EDL) und der Dichte des Säugetiermuskels (1,06 mg/mm^3) dividiert wurde. […]

Mäusen [4] = experiment: Muscle mass in mice after treatment (muscle analysis/sarcopenia); type: in vivo, Mäuse; conditions: Abbildung 6; for Muskelmasse: mice, 1 mg/kg intraperitoneal once daily for four weeks
Description: as §2

[5] = test system: primären humanen Skelettmuskelzellen; experiment: Endogenous respiration (Oxygraph 2K): oxygen consumption of primary human skeletal muscle cells; type: cell-based
Protocol: as §1

murinem Muskelgewebe = experiment: Endogenous respiration (Oxygraph 2K): oxygen consumption of murine muscle tissue ex vivo; type: cell-based, murin; conditions: Abbildung 2
Protocol: as §1

N#Cc1c(N)nc(SCC(N)=O)c(C#N)c1-c1ccc(OCC2CC2)cc1 [BAY 60-6583, 2-({6-Amino-3,5-dicyano-4-[4-(cyclopropylmethoxy)-phenyl]pyridin-2-yl}sulfanyl)-acetamid]
Aufnahme von Glukose [1]: signifikant erhöht | Aufnahme von Glukose ([1]; listed as Bay 60-6583): signifikant gesteigert | Sauerstoffverbrauch in Bezug auf die Gewebemasse ([2]; Abbildung 1): signifikant erhöht | Sauerstoffverbrauch in Bezug auf die Gewebemasse ([2]; Abbildung 1, listed as Bay 60-6583): signifikant gesteigert | Menge an Satellitenzellen (Satellitenzellen; Abbildung 9, 1 mg/kg): erhöht | Menge an Satellitenzellen (Satellitenzellen; Abbildung 9, listed as Bay 60-6583, 1 mg/kg): signifikant erhöht | Muskelkraft (Mäusen [3]): signifikant erhöht | Muskelkraft (Mäusen [3]; listed as Bay 60-6583): signifikant gesteigert | Muskelkraft, treated aged mice compared with young controls (Mäusen [3]; treated aged mice vs young control animals): so viel Kraft wie junge Kontrolltiere | Muskelmasse (Mäusen [4]; 1 mg/kg): dem alterungsbedingten Verlust von Muskelmasse entgegenwirkt | Muskelmasse (Mäusen [4]; listed as Bay 60-6583, 1 mg/kg): signifikant gesteigert | Muskelmasse, treated aged mice compared with young controls (Mäusen [4]; treated aged (20 months) mice vs young (2 months) control animals): vergleichbare Muskelmasse wie junge (2 Monate alte) Kontrolltiere | Sauerstoffverbrauch in Bezug auf das veratmete Protein ([5]; Abbildung 4): signifikant erhöht | Sauerstoffverbrauch in Bezug auf das veratmete Protein ([5]; Abbildung 4, listed as Bay 60-6583): signifikant gesteigert | Sauerstoffverbrauch (murinem Muskelgewebe): signifikant erhöht
